Results taken from publication PMC3015019 (Biological psychiatry, 2010).
Counter-ions that a name gives are not always drawn.

Key:
[1] = target: T1, σ2 receptor (Cavia porcellus, UniProt H0V073); assay: Sigma 2 receptor binding, [3H]DTG displacement in presence of; set-up: species or system guinea pig; settings: ratio of σ2 to σ1 affinity values
T1 sequence (H0V073 1-176): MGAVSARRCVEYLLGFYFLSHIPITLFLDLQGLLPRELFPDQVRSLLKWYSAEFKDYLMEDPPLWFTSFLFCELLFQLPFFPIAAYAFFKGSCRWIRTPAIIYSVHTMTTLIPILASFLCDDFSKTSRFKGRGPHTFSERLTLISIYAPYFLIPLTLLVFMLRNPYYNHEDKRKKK

[2] = test system: DA levels in dialysates from the NAc shell; assay: In-vivo microdialysis of extracellular DA in the NAc shell of freely moving rats; settings: rat; for time for DA levels to return to basal levels after injection: cocaine: highest dose
[3] = target: σ1 receptor (Cavia porcellus, UniProt Q60492); assay: Sigma 1 receptor binding, [3H]; set-up: species or system guinea pig
σ1 receptor, sequence (Q60492 whole entry): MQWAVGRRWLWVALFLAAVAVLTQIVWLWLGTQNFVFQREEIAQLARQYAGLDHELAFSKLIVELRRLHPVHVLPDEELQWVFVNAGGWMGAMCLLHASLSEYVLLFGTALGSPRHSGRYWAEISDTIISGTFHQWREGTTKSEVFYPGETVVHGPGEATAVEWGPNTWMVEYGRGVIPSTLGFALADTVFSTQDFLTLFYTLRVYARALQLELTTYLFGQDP

[4] = 10–30 mg/kg i.p., administered alone

## CN1CCN(CCc2ccc(Cl)c(Cl)c2)CC1 [BD 1063]
[1]
  σ2/σ1: 70.9
[2]; [4]
  later decrease in DA levels, antagonist alone: about 80 % of baseline
  transient (<30 min) non-significant increase in DA levels, antagonist alone: about 30%

## CN(CCc1ccc(Cl)c(Cl)c1)CCN1CCCC1 [BD 1008]
[2]; 10 mg/kg i.p., administered alone
  DA levels at 2 hr after injection, antagonist alone: ~75 % of basal control values

## CC(=O)c1ccc2c(c1)oc(=O)n2CCCCN1CCN(c2ccc(F)cc2)CC1 [SN79]
[2]; 1–3 mg/kg i.p., up to 100 min after administration
  effect on extracellular levels of DA, antagonist alone: did not significantly modify

## CN(C)CCN(C)CCc1ccc(Cl)c(Cl)c1 [BD 1047]
[1]
  σ2/σ1: 15.2

## Cc1ccccc1N=C(N)Nc1ccccc1C [DTG]
[2]; 3.2 mg/kg i.v.
  time of maximal effect on DA levels: 20 min
[2]; 5.6 mg/kg i.v.
  time of maximal effect on DA levels: ≤ 10 min
[2]; i.v., doses higher than 5.6 mg/kg
  acute toxicity: signs of acute toxicity
[2]; i.v.
  time for DA levels to return to basal levels after injection: ≤ 45 min

## COC(=O)[C@H]1[C@@H](OC(=O)c2ccccc2)C[C@@H]2CC[C@H]1N2C [Cocaine, (−)-cocaine hydrochloride]
[3]
  Ki: 5.19 µM
[2]; i.v.
  time for DA levels to return to basal levels after injection: ≤ 50 min
